SMILES strings stand for the structures. Numbers after ± are expanded uncertainties.

The conditions of series [1]: 298.15 K; 101.33 kPa; Liquid; Vibrating tube method.
Series [2] is described as follows: refractive index (Na D-line) (dimensionless). Conditions: 293.15 K; 101.33 kPa; Liquid; Standard Abbe refractometry.
Series [3] can be described thus: Boiling temperature at pressure P. To be noted: 101.3 kPa; Liquid; Ebulliometric method (Recirculating still).

On to `Cc1ccccn1` [2-methylpyridine], for which the mass density in series [1] is reported as 940.5 ± 0.1 kg/m3. Further, the refractive index in series [2] is recorded as 1.4985 ± 0.0007. Moreover, the “Boiling temperature at pressure P” value in series [3] was determined as 129.1 ± 0.2 °C.

For the compound `O` [water], the refractive index in series [2] was 1.3322 ± 0.0007. In series [3], the “Boiling temperature at pressure P” value was 100.10 ± 0.2 °C.

The mass density is mass per unit of volume. What is called refractive index is the speed of light in vacuum divided by its phase velocity in the sample.

Source of the values: the NIST ThermoML archive (doi:10.1021/acs.jced.6b00713).
